Experimental data reported in patent US20210205413A1 (Nektar Therapeutics, priority 2018, published 2021).
Entries after “also recorded” stand apart in the source; their conditions may differ.

Tests used:
[1] = test system: Balb/C mice (OVA food allergy model); test: Food allergy model (OVA sensitization and oral challenge); format: in vivo
Procedure: To develop the DTH model, Balb/c mice are sensitized with a subcutaneous administration of a model antigen keyhole limpet hemocyanin (KLH) emulsified in complete and incomplete Freund's adjuvant. […] Inflamed ears are subjected to immunohistochemistry (IHC) to quantify percent of FoxP3+ Treg cells post KLH challenge. The specificity of response is assessed after an additional 3-4 weeks with no treatment by either KLH rechallenge or conducting sensitization and challenge with an unrelated antigen ovalbumin (OVA). […] Post ten days of 2nd sensitization, mice are challenged with OVA eight times orally, every alternative day. […] Severity of allergic response is assessed by clinical scoring within 30-45 min of post 8th challenge. Further, serum mast cell protease 1 (MCPT 1) and OVA specific IgE titers are quantified. The percent Treg is determined by flow cytometry in peripheral blood and in spleen.

[2] = test system: CD4+FoxP3+CD25bright Tregs; test: Phase I single ascending dose study in healthy volunteers: Tregs in peripheral blood by flow cytometry; format: in vivo, human
Procedure: A double-blind, randomized, placebo-controlled study is conducted to evaluate the safety, tolerability, pharmacokinetics, and pharmacodynamics of single ascending low sub-cutaneous doses of an RUR20kD-IL-2 composition (RUR20kD-IL-2) in healthy volunteers. […] Twelve subjects are randomized to each dose cohort, nine of whom received a single subcutaneous dose of RUR20kD-IL-2 while three received placebo. […] The drug product is supplied in single-use glass vials and stored at 2-8° C. […] Placebo is a commercially available 0.9% sodium chloride solution. A starting dose of 0.3 μg/kg is chosen using the minimally anticipated biological effect level (MABEL) approach and is supported by the no observed adverse effect level (NOAEL) in the most sensitive species from nonclinical toxicology studies.
The primary objective of the study is to evaluate the safety and tolerability of RUR20kD-IL-2 administered as a single subcutaneous dose. […] In a first phase of the study, immune markers are tested pre-dose up to 20 hours post-dose. Specifically, Tregs, CD4^+-T cells, CD8^+-T cells, natural killer (NK) cells, cytokines, soluble CD25, and RNA are tested in RUR20kD-IL-2- and placebo-receiving cohorts. In subsequent phases, the same immune markers are also tested at 4-, 5-, 6-, 7-, 8-, 10-, 12-, 15-, 18-, 20-, 25-, 30-, 40, and 50-days post-dose.

[3] = test system: Tregs in human PBMC; test: pSTAT5 induction in lymphocyte populations of human PBMC (flow cytometry, CyToF); format: cell-based; conditions: in vitro
Procedure: Impaired IL-2 production and regulatory T cell dysfunctions have been implicated as an immunological mechanism in multiple autoimmune diseases. While low-dose IL-2 can be used to stimulate Tregs for clinical benefit, poor pharmacokinetics necessitates daily delivery, adverse events are dose-limiting, and Treg increases are modest and short-lived. […] The affinity to the IL-2 receptor is assessed by surface plasmon resonance. Activity in human PBMC can be measured by pSTAT5 induction in multiple lymphocyte populations using flow cytometry and time-of-flight mass cytometry (CyToF). In vivo activity after subcutaneous administration in C57BL/6 mice or cynomolgus monkey is measured by changes in lymphocyte numbers and activation by flow cytometry. Ex vivo Treg function is determined by the inhibition of Tcon proliferation by isolated splenic Treg. Efficacy is assessed in a model of systemic lupus erythematosus (SLE) using MRL/MpJ-Faslpr mice. […] In mice, a single administration leads to sustained Treg mobilization for 7-10 days in blood and spleen without Tcon activation, an effect concomitant with induction of Treg activation markers and increased ex vivo suppressive capacity. […] Finally, an RUR20kD-IL-2 composition is efficacious in mouse models of SLE.

With “(1,3-bis(methoxypoly(ethylene glycol)10kDcarbamoyl)-2-propanoxy)-4-butanamide)interleukin-2) [RUR20kD-IL-2]” the “Tregs (flow cytometry, peripheral blood and spleen)” value ([1]; SC 0.1 mg/kg q3d×3) was “significant increase in Tregs”, the “levels of MCPT1 and anti-OVA specific IgE titers” value ([1]; SC 0.1 mg/kg q3d×3) was “significant decrease in levels of MCPT1 and anti-OVA specific IgE titers” and the “anaphylaxis symptoms (clinical scores)” value ([1]; SC 0.1 mg/kg q3d×3, repeated oral OVA) was “efficacious in decreasing the high degree of anaphylaxis symptoms”. For the same substance, the “mean increase in numbers of CD4+FoxP3+CD25bright Tregs compared to placebo” value (“mean increase in numbers … to placebo” below) ([2]; single SC 3.0 μg/kg) was 3.0 fold, the “mean increase in numbers of CD4+FoxP3+CD25bright Tregs compared to pre-dose” value (“mean increase in numbers … to pre-dose” for short) ([2]; single SC 3.0 μg/kg) was 3 fold and the “time of peak (maximal) Treg response” value ([2]; single SC 3.0 μg/kg) was 84 h. The “mean increase in numbers … to placebo” value ([2]; single SC 6.0 μg/kg) was 3.5 fold, the “mean increase in numbers … to pre-dose” value ([2]; single SC 6.0 μg/kg) was 3.5 fold and the “mean increase in numbers … to placebo” value ([2]; single SC 9.0 μg/kg) was 4.1 fold. The “mean increase in numbers … to pre-dose” value ([2]; single SC 9.0 μg/kg) was 4.1 fold, the “mean increase in numbers … to placebo” value ([2]; single SC 13.5 μg/kg) was 5.0 fold and the “mean increase in numbers … to pre-dose” value ([2]; single SC 13.5 μg/kg) was 5 fold. The “mean increase in numbers … to pre-dose” value ([2]; single SC 20.0 μg/kg) was 8.1 fold, the “increase in mean peak Treg:CD8 ratio over baseline” value ([2]; single SC 28 μg/kg) was 15 fold and the “mean peak increase in numbers of CD25-bright Tregs above pre-dose values” ([2]; single SC 28 μg/kg) was 17 fold. For the same substance, the “mean peak percentage of CD25bright Tregs” value ([2]; single SC 28.0 μg/kg, increased from 0.5%) was 7.4%, the “numbers of Tregs versus placebo subjects” value ([2]; single SC 0.3 and 1.0 μg/kg) was “no change in the numbers of Tregs; also recorded: No changes in total CD4+ Tregs” and the “total CD4+FoxP3+CD25+ Treg population” value ([2]; single SC 3.0, 6.0, 9.0 and 13.5 μg/kg) was “dose-dependent increase in the total CD4+FoxP3+CD25+ Treg population”. For the same substance, the “doses at which increases in Treg activation markers (ICOS and CTLA4) were observed” value ([2]; single SC dose) was ≥ 0.0135 mg/kg, the “time until CD4+FoxP3+CD25bright Treg levels return to baseline” value ([2]; single SC dose, 3.0 μg/kg and above) was 20 to 25 days and the “days at which Treg levels peak” value ([2]; single SC dose, 3.0 to 28.0 μg/kg cohorts) was 10 to 12 days. For the same substance, the “STAT5 phosphorylation in Tregs relative to other lymphocyte subsets” value [3] was “increased STAT5 phosphorylation relative to other lymphocyte subsets”.
